Assay results published in ChEMBL document CHEMBL5625222, “Design, synthesis, and biological evaluation of 1,6-naphthyridine-2-one derivatives as novel FGFR4 inhibitors for the treatment of colorectal cancer” (Eur J Med Chem, 2023).
The source made the active and inactive calls. The calls are words filed in the database; no cut-off is given here.

How the values were obtained:
[1] = Antiproliferative activity against human Intestinal epithelial cell assessed as inhibition of cell growth incubated for 48 hrs by MTT assay; type: toxicity, cell-based; conditions: human intestinal epithelial cells
HCT-116 [2] = assay: cells; conditions: Homo sapiens, HCT-116, 48 h
Description: Antiproliferative activity against human HCT-116 cells assessed as inhibition of cell growth incubated for 48 hrs by MTT assay

SW480 = assay: cells; conditions: Homo sapiens, SW480, 48 h
Description: Antiproliferative activity against human SW480 cells assessed as inhibition of cell growth incubated for 48 hrs by MTT assay

RKO = assay: cells; conditions: Homo sapiens, 48 h
Description: Antiproliferative activity against human RKO cells assessed as inhibition of cell growth incubated for 48 hrs by MTT assay

BaF3 = assay: Antiproliferative activity against mouse BaF3 transfected with FGFR4 assessed as inhibition of cell growth incubated for 72 hrs by CCK-8 assay; type: toxicity, cell-based; conditions: BaF3, 72 h
HCT-116 [3] = assay: Antitumor activity against human HCT-116 cells xenografted in BALB/c mouse assessed as tumor growth inhibition at 10 mg/kg,po administrated for 2 weeks relative to control; type: functional; conditions: HCT-116, 336 h, read-out: TGI
HCT-116 [4] = assay: Antitumor activity against human HCT-116 cells xenografted in BALB/c mouse assessed as change in cell morphology at 10 mg/kg,po administrated for 2 weeks by hematoxylin and eosin staining based analysis; type: functional, organism-based
HCT-116 [5] = assay: Antitumor activity against human HCT-116 cells xenografted in BALB/c mouse assessed as chromatin condensation at 10 mg/kg,po administrated for 2 weeks by hematoxylin and eosin staining based analysis; type: functional, organism-based
[6] = Toxicity in BALB/c mouse xenografted with human HCT-116 cells assessed as histopathological change in kidney at 10 mg/kg,po administrated for 2 weeks by hematoxylin and eosin staining based analysis; type: organism-based; conditions: in vivo, 336 h
[7] = Toxicity in BALB/c mouse xenografted with human HCT-116 cells assessed as increase in serum AST level at 10 mg/kg,po administrated for 2 weeks; type: organism-based; conditions: in vivo, 336 h

| SMILES | IC50 (HCT-116 [2]) [µM] | IC50 (SW480) [µM] | IC50 (RKO) [µM] | IC50 at 48 h [1] [µM] | IC50 (BaF3) [µM] | inhibition in vivo at 10 mg/kg (HCT-116 [3]) [%] | Activity (HCT-116 [4]) | Activity (HCT-116 [5]) | Activity [6] | Activity [7] |
| --- | --- | --- | --- | --- | --- | --- | --- | --- | --- | --- |
| C=CC(=O)NCCCn1c(=O)c(-c2cc(OC)cc(OC)c2)cc2cnc(Nc3c(C)cccc3N3CCN(C)CC3)cc21 | 10.8 | 12.7 | 11.5 | 21.3 | – | – | – | – | – | – |
| COc1cc(OC)cc(-c2cc3cnc(Nc4c(C)cccc4N4CCOCC4)cc3n(CCCO)c2=O)c1 | 11.9 | 22.8 | 9.25 | 19.5 | – | – | – | – | – | – |
| CNC(=O)c1c(C)oc2cc(Oc3ncnc4cc(OC)c(OC)cc34)ccc12 [FRUQUINTINIB] | – | – | – | – | – | 63.7 | Active | Active | Toxic | Toxic |

Now from value to molecule, other results behind:

| IC50 (HCT-116 [2]) [µM] | IC50 (SW480) [µM] | IC50 (RKO) [µM] | SMILES | IC50 at 48 h [1] [µM] | IC50 (BaF3) [µM] | inhibition in vivo at 10 mg/kg (HCT-116 [3]) [%] | Activity (HCT-116 [4]) | Activity (HCT-116 [5]) | Activity [6] | Activity [7] |
| --- | --- | --- | --- | --- | --- | --- | --- | --- | --- | --- |
| 9.37 | 10.3 | 11.2 | COc1cc(OC)c(Cl)c(-c2cc3cnc(Nc4c(C)cccc4N4CCCCC4)cc3n(CCCN3CCCCC3)c2=O)c1Cl | 25.1 | – | – | – | – | – | – |
| 7.21 | 12.8 | 9.32 | C=CC(=O)Nc1cccc(C)c1Nc1cc2c(cn1)cc(-c1c(Cl)c(OC)cc(OC)c1Cl)c(=O)n2CCCO | 24 | – | – | – | – | – | – |
| 8.89 | 12.7 | 19.7 | C=CC(=O)Nc1cccc(C)c1Nc1ncc2cc(-c3c(Cl)c(OC)cc(OC)c3Cl)ccc2n1 | 18.4 | 0.00512 | – | – | – | – | – |
